The target in one series is SARS-CoV E protein (Severe acute respiratory syndrome coronavirus, UniProt P59637). It is filed as cell-based.
A further series deals with MHV (strain MHV-A59). The note with it: L929 cells.
In the next series the target is Vpu protein (Human immunodeficiency virus type 1 group M subtype B, UniProt P05919). The settings on record: halo of growth score between zero and six; XL1-blue E. coli with pPL-Vpu, no adenine, 37° C.
Another series has as its target 229E-CoV E-protein (Human coronavirus 229E, UniProt P19741). Briefly: Bacterial bio-assay for 229E-CoV E-protein. The note with it: halo of growth score; E. coli expressing E protein at 37° C.

Counter-ions that a name gives are not always drawn. Like-named read-outs stand apart in the source and are kept apart here.

From patent US11192863B2, “Antiviral compounds and methods” (Biotron Limited, priority 2003, dated 2021) come the findings set out here.

Take `NC(N)=NC(=O)c1cccc2ccccc12` [1-napthoylguanidine]: the “SARS E protein Inhibition (score/# of times tested)” value (from here on “SARS E protein Inhibition”) at SARS-CoV E protein is on record as 1.32/3 score. Also, the figures for the “Percent reduction in Plaque number/# experiments” value (“Percent reduction” below) with MHV (strain MHV-A59) (1 uM), with MHV (strain MHV-A59) (10 uM) and in the series on MHV (strain MHV-A59) (20 uM) were 2/3%, 62/3% and 71/3%, respectively. The “Vpu Inhibition (score/# of times tested)” value on Vpu protein is reported as 0.3/2 score. In addition, the “229E E protein Inhibition (score)” value on 229E-CoV E-protein stood at 1.9 score.
For `Cc1cc(C)c(C)c(/C=C/C(=O)NC(=N)N)c1C` [2,3,5,6,-tetramethylcinnamoylguanidine], the “SARS E protein Inhibition” value on SARS-CoV E protein is 1.00/1 score. For the same compound, the figures for the “Percent reduction” value with MHV (strain MHV-A59) (1 uM) and in the series with MHV (strain MHV-A59) (10 uM) were 0/1% and 68/2%, respectively. Further, the “Vpu Inhibition (score/# of times tested)” value at Vpu protein is 1.6/2 score. The “229E E protein Inhibition (score)” value on 229E-CoV E-protein stood at 0.3 score.
As to `N=C(N)NC(=O)/C=C/c1cccc(F)c1F` [2,3-difluorocinnamoylguanidine], the “SARS E protein Inhibition” value on SARS-CoV E protein was 4.50/1 score. The entries for the “Percent reduction” value with MHV (strain MHV-A59) (1 uM) and in the series on MHV (strain MHV-A59) (10 uM) were 64/2% and 92/3%, respectively. For the same compound, in the series on MHV (strain MHV-A59) (20 uM), the “Toxic (noted in place of plaque reduction)” value is recorded as “Toxic”. At Vpu protein, the “Vpu Inhibition (score/# of times tested)” value is recorded as 1.56/2 score. Moreover, the “229E E protein Inhibition (score)” value on 229E-CoV E-protein was determined as 3.3 score.
For the compound `Cc1cccc(/C=C/C(=O)NC(=N)N)c1C` [2,3-dimethylcinnamoylguanidine], the entries for the “Percent reduction” value in the series with MHV (strain MHV-A59) (1 uM), with MHV (strain MHV-A59) (10 uM) and with MHV (strain MHV-A59) (20 uM) were 34/1%, 79/2% and 95/1%, respectively. Moreover, the “Vpu Inhibition (score/# of times tested)” value on Vpu protein is on record as 3.1/2 score. The “229E E protein Inhibition (score)” value on 229E-CoV E-protein turned out to be 0.5 score.
For `Cc1cc(C)c(/C=C/C(=O)NC(=N)N)c(C)c1` [2,4,6-trimethylcinnamoylguanidine], in that order: 27/2%, 61/3%, 91/2%, 1.4/2 score and 0.9 score.
On to `Cc1ccc(C)c(/C=C/C(=O)NC(=N)N)c1` [2,5-dimethylcinnamoylguanidine], for which the “SARS E protein Inhibition” value on SARS-CoV E protein was 3.63/1 score. In addition, the “Percent reduction” value with MHV (strain MHV-A59) (1 uM) is reported as 39/3%; in the series on MHV (strain MHV-A59) (10 uM), 91/3%; in the series on MHV (strain MHV-A59) (20 uM) it was 95/3%. Besides, on Vpu protein, the “Vpu Inhibition (score/# of times tested)” value is on record as 2.69/2 score. In addition, the “229E E protein Inhibition (score)” value on 229E-CoV E-protein is 1.6 score.
For the compound `N=C(N)NC(=O)/C=C/c1ccccc1C(F)(F)F` [2-(trifluoromethyl)cinnamoylguanidine], the “SARS E protein Inhibition” value at SARS-CoV E protein was 1.38/1 score. Moreover, the “Percent reduction” value with MHV (strain MHV-A59) (1 uM) is recorded as 13/1%; with MHV (strain MHV-A59) (10 uM), 15/1%; with MHV (strain MHV-A59) (20 uM), 19/1%. Moreover, the “Vpu Inhibition (score/# of times tested)” value at Vpu protein is given as 2.4/2 score. Besides, at 229E-CoV E-protein, the “229E E protein Inhibition (score)” value is listed as 1.5 score.
Take `N=C(N)NC(=O)/C=C/c1ccccc1C1CCCCC1` [2-cyclohexylcinnamoylguanidine]: the “SARS E protein Inhibition” value at SARS-CoV E protein is 1.83/1 score. Moreover, the “Percent reduction” value was 16/1% in the series with MHV (strain MHV-A59) (1 uM), 74/2% with MHV (strain MHV-A59) (10 uM) and 100/1% with MHV (strain MHV-A59) (20 uM). Besides, the “Vpu Inhibition (score/# of times tested)” value at Vpu protein is on record as 0.8/2 score. Moreover, the “229E E protein Inhibition (score)” value on 229E-CoV E-protein came to 0.8 score.
As to `CCOc1ccccc1/C=C/C(=O)NC(=N)N` [2-ethoxycinnamoylguanidine], the “SARS E protein Inhibition” value at SARS-CoV E protein was 2.57/1 score. Also, the “Percent reduction” value in the series with MHV (strain MHV-A59) (1 uM) was 48/2%; in the series with MHV (strain MHV-A59) (10 uM), 85/3%; with MHV (strain MHV-A59) (20 uM), 93/2%. The “Vpu Inhibition (score/# of times tested)” value on Vpu protein is 2.25/2 score. The “229E E protein Inhibition (score)” value at 229E-CoV E-protein was 0.6 score.
With `CCc1ccccc1/C=C/C(=O)NC(=N)N` [2-ethylcinnamoylguanidine], on SARS-CoV E protein, the “SARS E protein Inhibition” value is 1.50/1 score. Also, the “Percent reduction” value is 34/1% in the series on MHV (strain MHV-A59) (1 uM), 81/2% in the series with MHV (strain MHV-A59) (10 uM) and 96/1% in the series on MHV (strain MHV-A59) (20 uM). Also, the “Vpu Inhibition (score/# of times tested)” value at Vpu protein is reported as 2.75/2 score. For the same compound, the “229E E protein Inhibition (score)” value at 229E-CoV E-protein is on record as 0.8 score.
Regarding `N=C(N)NC(=O)/C=C/c1ccccc1-c1ccccc1` [2-phenylcinnamoylguanidine], the “Percent reduction” value in the series on MHV (strain MHV-A59) (1 uM) was 42/1%; in the series on MHV (strain MHV-A59) (10 uM) it was 100/1%. Further, the “Vpu Inhibition (score/# of times tested)” value on Vpu protein is recorded as 2.1/2 score. For the same compound, the “229E E protein Inhibition (score)” value on 229E-CoV E-protein is on record as 3.0 score.
Consider `COc1cc(/C=C/C(=O)NC(=N)N)cc(OC)c1OC` [3,4,5-trimethoxycinnamoylguanidine], for which the “SARS E protein Inhibition” value on SARS-CoV E protein was 2.25/1 score. In addition, the entries for the “Percent reduction” value in the series on MHV (strain MHV-A59) (1 uM), in the series with MHV (strain MHV-A59) (10 uM) and in the series with MHV (strain MHV-A59) (20 uM) were 21/1%, 84/1% and 84/1%, respectively. Moreover, the “229E E protein Inhibition (score)” value at 229E-CoV E-protein is reported as 0.1 score.
Regarding `N=C(N)NC(=O)/C=C/c1ccc(F)c(F)c1` [3,4-difluorocinnamoylguanidine], the “Percent reduction” value in the series on MHV (strain MHV-A59) (1 uM) was 50/1%; with MHV (strain MHV-A59) (10 uM), 91/2%. The “Toxic (noted in place of plaque reduction)” value in the series with MHV (strain MHV-A59) (20 uM) is “Toxic”. Moreover, the “Vpu Inhibition (score/# of times tested)” value on Vpu protein is recorded as 2.06/2 score. Moreover, the “229E E protein Inhibition (score)” value at 229E-CoV E-protein stood at 0.4 score.
As for `CCOc1cccc(/C=C/C(=O)NC(=N)N)c1` [3-ethoxycinnamoylguanidine], the “Percent reduction” value in the series with MHV (strain MHV-A59) (1 uM) is listed as 58/1%; in the series with MHV (strain MHV-A59) (10 uM), 89/2%; in the series on MHV (strain MHV-A59) (20 uM), 100/1%. Moreover, the “Vpu Inhibition (score/# of times tested)” value at Vpu protein is recorded as 1.9/2 score. Further, at 229E-CoV E-protein, the “229E E protein Inhibition (score)” value is given as 0.3 score.
For the compound `CC(C)c1cccc(/C=C/C(=O)NC(=N)N)c1.Cl` [3-isopropylcinnamoylguanidine hydrochloride], the “Percent reduction” value was 32/1% in the series on MHV (strain MHV-A59) (1 uM) and 99/2% with MHV (strain MHV-A59) (10 uM). Further, the “Vpu Inhibition (score/# of times tested)” value on Vpu protein is reported as 2.6/2 score. The “229E E protein Inhibition (score)” value at 229E-CoV E-protein came to 4.0 score.
In the case of `CC(C)(C)c1ccc(/C=C/C(=O)NC(=N)N)cc1` [4-t-butylcinnamoylguanidine], the “SARS E protein Inhibition” value on SARS-CoV E protein is recorded as 4.00/1 score. For the same compound, the “Vpu Inhibition (score/# of times tested)” value on Vpu protein was 0.19/2 score. Further, the “229E E protein Inhibition (score)” value on 229E-CoV E-protein is on record as 4.0 score.
As to `N=C(N)NC(=O)CCc1ccccc1` [(3-phenylpropanoyl)guanidine], the “SARS E protein Inhibition” value on SARS-CoV E protein is 0.73/5 score. For the same compound, the “Percent reduction” value is listed as 0/1% with MHV (strain MHV-A59) (1 uM), 03/1% in the series with MHV (strain MHV-A59) (10 uM) and 51/1% with MHV (strain MHV-A59) (20 uM). In addition, the “Vpu Inhibition (score/# of times tested)” value on Vpu protein is recorded as 0.2/4 score.
In the same order, the values of `N/C(=N\C(=O)c1nc(Cl)c(N)nc1N)NCc1ccccc1` [Benzamil hydrochloride, N-Benzyl-N′-(3,5-diamino-6-chloro-pyrzine-2-carbonyl)-guanidine] are 1.32/2 score, 0/1%, 26/1%, 0/1% and 0.9/3 score.
Consider `NC(N)=NC(=O)c1ccc2cc(C(=O)N=C(N)N)ccc2c1` [N,N′-Bis(amidino)napthalene-2,6-dicarboxamide], for which the “SARS E protein Inhibition” value at SARS-CoV E protein is recorded as 0.25/2 score. The results for the “Percent reduction” value in the series on MHV (strain MHV-A59) (1 uM), in the series on MHV (strain MHV-A59) (10 uM) and in the series with MHV (strain MHV-A59) (20 uM) were 0/1%, 16/1% and 19/1%, respectively. The “229E E protein Inhibition (score)” value at 229E-CoV E-protein came to 0.3 score.
Turning to `N=C(NC(=O)/C=C/c1ccccc1)Nc1ccccc1` [N-(cinnamoyl)-N′phenylguanidine, N-(cinnamoyl)-N′-phenylguanidine], the “SARS E protein Inhibition” value at SARS-CoV E protein was 1.19/2 score. Besides, the “Percent reduction” value in the series on MHV (strain MHV-A59) (1 uM) is on record as 13/1%; in the series on MHV (strain MHV-A59) (10 uM) it was 88/1%; with MHV (strain MHV-A59) (20 uM) it was 83/1%. Moreover, the “Vpu Inhibition (score/# of times tested)” value on Vpu protein is recorded as 1.25/3 score.
For `N/C(=N\C(=O)/C=C/c1ccccc1)NC(=O)c1ccccc1` [N-Benzoyl-N′-cinnamoylguanidine], in that order: 0.13/2 score, 14/1%, 0/1%, 0/1% and 0.06/2 score.
In the same order, the values of `N=C(N)NC(=O)COc1ccc(Cl)cc1` [[(4-Chlorophenoxy-acetyl]guanidine, (4-Chlorophenoxy-acetyl)guanidine] are 0.19/2 score, 0/1%, 16/1%, 19/1% and 0.56/2 score.
In the same order, the values of `N=C(N)NC(=O)/C=C/c1ccoc1` [trans-3-Furanacryoylguanidine, trans-3-furanacryoylguanidine] are 0.88/2 score, 48/1%, 65/1%, 70/1% and 0.38/2 score.
